# Data as given in patent US8846653B2, “Delta-tocotrienol treatment and prevention of pancreatic cancer” (University of South Florida, priority 2006, dated 2014).
# What was measured:
# Format in all cases: cell-based, human
# [1] = system: SW1990 pancreatic cancer cells; test: MTS assay of SW1990 cultures, single 50 μM dose; details: SW1990, 50 μM
# In short: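 MTS-based viability was measured 24, 48 or 72 h after a single 50 μM treatment; the agents were α/β/γ/δ-tocotrienol, α/β-tocopherol, tocopherol succinate, geranylgeraniol or succinic acid. The cells were SW1990, cultured in 10% FBS DMEM. Vehicle (ethanol-extracted olive oil) cultures ran in parallel as reference.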
# [2] = system: BXPC3 cells; test: MTT assay of BXPC3 cultures, single 50 μM dose; parameters: MTT assay result, run 1 / MTT assay result, run 2 / MTT assay result, run 3 / MTT assay result, run 4 / MTT assay result, run 5 / MTT assay result, run 6 / MTT assay result, run 7 / MTT assay result, av (average) / MTT assay result, av-blank / MTT assay result, av: unit not given here; details: BXPC3, 50 μM; for MTT assay result, av-blank: average minus blank
# In short: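 Viability measured by MTT assay 48 or 120 hours after one 50 μM treatment with tocol-family compounds, geranylgeraniol, succinic acid or vehicle, with untreated cultures in parallel. BXPC3 cells grown in FBS-supplemented medium, 37° C, humidified 5% CO2.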
# [3] = system: MiaPaCa-2 cells; test: MTT assay of MiaPaCa2 cultures, single 50 μM dose; parameters: rel amt (relative value set to the control): unit not given here; details: MiaPaCa2, 50 μM; for MTT assay result, av-blank: average minus blank; for MTT assay result, av: average of 7 runs
# In short: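 Viability measured by MTT 48 or 120 hours post-treatment, with a vehicle-only (ethanol-extracted olive oil) culture as control. MiaPaCa-2 cultures received one 50 μM exposure to a tocotrienol, tocopherol, tocopherol succinate, geranylgeraniol or succinic acid.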
smiles,measurement,setting,value
"CC(C)=CCC/C(C)=C/CC/C(C)=C/CC[C@]1(C)CCc2c(C)c(O)cc(C)c2O1 [T3 beta, beta tocotrienol]",rel amnt (relative value set to the control),[1]; 24 hours,99
same,"MTS assay result, run 1",[1]; 24 hours,0.164
same,"MTS assay result, run 2",[1]; 24 hours,0.168
same,"MTS assay result, run 3",[1]; 24 hours,0.167
same,"MTS assay result, run 4",[1]; 24 hours,0.123
same,"MTS assay result, run 5",[1]; 24 hours,0.138
same,"MTS assay result, run 6",[1]; 24 hours,0.143
same,"MTS assay result, run 7",[1]; 24 hours,0.126
same,"MTS assay result, run 8",[1]; 24 hours,0.134
same,"MTS assay result, run 9",[1]; 24 hours,0.145
same,rel amnt (relative value set to the control),[1]; 48 hours,68
same,"MTS assay result, run 1",[1]; 48 hours,0.108
same,"MTS assay result, run 2",[1]; 48 hours,0.093
same,"MTS assay result, run 3",[1]; 48 hours,0.09
same,"MTS assay result, run 4",[1]; 48 hours,0.104
same,"MTS assay result, run 5",[1]; 48 hours,0.109
same,"MTS assay result, run 6",[1]; 48 hours,0.117
same,"MTS assay result, run 7",[1]; 48 hours,0.1
same,"MTS assay result, run 8",[1]; 48 hours,0.102
same,"MTS assay result, run 9",[1]; 48 hours,0.104
same,rel amnt (relative value set to the control),[1]; 72 hours,69
same,"MTS assay result, run 1",[1]; 72 hours,0.349
same,"MTS assay result, run 2",[1]; 72 hours,0.316
same,"MTS assay result, run 3",[1]; 72 hours,0.33
same,"MTS assay result, run 4",[1]; 72 hours,0.298
same,"MTS assay result, run 5",[1]; 72 hours,0.323
same,"MTS assay result, run 6",[1]; 72 hours,0.287
same,"MTS assay result, run 7",[1]; 72 hours,0.28
same,"MTS assay result, run 8",[1]; 72 hours,0.275
same,"MTS assay result, run 9",[1]; 72 hours,0.307
same,rel amt (relative value set to the control),[2]; 48 hours,95
same,"MTT assay result, av-blank",[2]; 48 hours,0.216
same,"MTT assay result, av (average)","[2]; 48 hours, average of 7 runs",0.265
same,"MTT assay result, run 1",[2]; 48 hours,0.263
same,"MTT assay result, run 2",[2]; 48 hours,0.261
same,"MTT assay result, run 3",[2]; 48 hours,0.27
same,"MTT assay result, run 4",[2]; 48 hours,0.254
same,"MTT assay result, run 5",[2]; 48 hours,0.278
same,"MTT assay result, run 6",[2]; 48 hours,0.255
same,"MTT assay result, run 7",[2]; 48 hours,0.274
same,rel amt (relative value set to the control),[2]; 120 hours (5 days),72
same,"MTT assay result, av-blank",[2]; 120 hours (5 days),0.417
same,"MTT assay result, av","[2]; 120 hours (5 days), average of 7 runs",0.472
same,"MTT assay result, run 1",[2]; 120 hours (5 days),0.468
same,"MTT assay result, run 2",[2]; 120 hours (5 days),0.512
same,"MTT assay result, run 3",[2]; 120 hours (5 days),0.495
same,"MTT assay result, run 4",[2]; 120 hours (5 days),0.481
same,"MTT assay result, run 5",[2]; 120 hours (5 days),0.457
same,"MTT assay result, run 6",[2]; 120 hours (5 days),0.483
same,"MTT assay result, run 7",[2]; 120 hours (5 days),0.411
same,rel amt (relative value set to the control),[3]; 48 hours,62
same,"MTT assay result, av-blank",[3]; 48 hours,0.193
same,"MTT assay result, av",[3]; 48 hours,0.239
same,"MTT assay result, run 1",[3]; 48 hours,0.272
same,"MTT assay result, run 2",[3]; 48 hours,0.235
same,"MTT assay result, run 3",[3]; 48 hours,0.233
same,"MTT assay result, run 4",[3]; 48 hours,0.226
same,"MTT assay result, run 5",[3]; 48 hours,0.252
same,"MTT assay result, run 6",[3]; 48 hours,0.219
same,"MTT assay result, run 7",[3]; 48 hours,0.239
same,rel amt (relative value set to the control),[3]; 120 hours (5 days),53
same,"MTT assay result, av-blank",[3]; 120 hours (5 days),0.966
same,"MTT assay result, av",[3]; 120 hours (5 days),1.018
same,"MTT assay result, run 1",[3]; 120 hours (5 days),0.97
same,"MTT assay result, run 2",[3]; 120 hours (5 days),0.781
same,"MTT assay result, run 3",[3]; 120 hours (5 days),0.977
same,"MTT assay result, run 4",[3]; 120 hours (5 days),1.154
same,"MTT assay result, run 5",[3]; 120 hours (5 days),1.408
same,"MTT assay result, run 6",[3]; 120 hours (5 days),0.944
same,"MTT assay result, run 7",[3]; 120 hours (5 days),0.891
